“And” between values parts separate entries of the source, which are not always exact repeats. Equal entries are not always repeated.
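Also: spheroids exposed to compounds for seven days.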

One assay has as its system 454973-116-R2-J3-PDC spheroids, viability, % test/control. In words: Anticancer human tumor 454973-116-R2-J3-PDC patient-derived pancreatic carcinoma cell line growth inhibition [GQUAD]. Particulars: compound 10 µM; stronger effect = lower value; spheroids with HUVEC and MSC. From the text:
DNA G-quadruplex Stabilizer Agents in Combinations in Complex Spheroids
A high-throughput screen of multi-cell type tumor spheroids was designed to identify active combinations of DNA G-quadruplex stabilizer agents and targeted small molecules. Complex spheroids include a stromal component modeled by human endothelial cells (HUVEC) and fibroblasts modeled by human mesenchymal stem cells (MSCs). The concentration ranges selected for each drug and investigational agent were based upon clinically achievable concentrations if the clinical Cmax of the agent was known.
Compounds. The drugs and investigational agents: pidnarulex (CX-5461; NSC782164), APTO-253 (NSC789042), BRACO-19 (NSC847499), peposertib (NSC802822), ceralasertib (NSC780249), elimusertib (NSC800525), camonsertib (NSC841442), AZD-1390 (NSC803789), olaparib (NSC753686), talazoparib (NSC767125), ART-558 (NSC835418), sotorasib (NSC818433), MRTX-1133 (NSC836407), SN-38 (NSC673596), topotecan (NSC609699), etoposide (NSC141540), doxorubicin (NSC123127), gemcitabine (NSC613327), 5-fluorouracil (NSC19893), paclitaxel (NSC125973), vemurafenib (NSC761431), panobinostat (NSC761190), R-306465 (JNJ-16241199; NSC773264), adavosertib (NSC754352), TP-3654 (NSC805149), carboplatin (NSC241240), KSQ-4279 (NSC840948), and staurosporine (NSC755774) were obtained from the National Cancer Institute (NCI) Developmental Therapeutics Program Chemical Repository (34). The FDA-approved anticancer drug set is available from the NCI Developmental Therapeutics Program. […] The stock solutions were prepared in dimethyl sulfoxide (DMSO, Sigma-Aldrich, St. Louis, MO, cat. D2650) at 800-fold the tested concentration and stored at -70 degrees C prior to their use. All drugs and investigational agents were tested over a range starting from a high concentration at or near the clinical Cmax and decreasing in half-log increments. If the clinical Cmax for an agent had not been determined, the highest concentration tested was 10 microM.
2.3 Cell Culture. All cells were maintained in an incubator at 37 degrees C and 5% CO2 with 95% humidity. The PDC lines were cultured according to standard operating procedures established by the NCI PDMR. All PDCs were thawed and cultured in Matrigel-coated flasks prepared with a working solution of 1X Ham's F-12 nutrient mix, without supplementation (Invitrogen, cat. 11765054), 100 U/mL penicillin-streptomycin (Invitrogen, cat. 15140122), and 2.5% Matrigel (Corning Inc., cat. 354248) for the first three passages. The 857933-349-R-J2-PDC line was cultured in 6C/Colon 1B media, which includes advanced DMEM/F-12 (Thermo Fisher Scientific, cat. 12634028), 10 mM HEPES (Thermo Fisher Scientific, cat. 15630080), 1X GlutaMAX supplement (Thermo Fisher Scientific, cat. 35050061), 0.1 mg/mL primocin (InvivoGen, cat. ant-pm-2), 10% defined fetal bovine serum, heat inactivated (HyClone Laboratories Inc., cat. SH30070.03HI), 50% L-WRN conditioned media (ATCC, cat. CRL-3276), 1.25 mM N-Acetyl-L-cysteine (Sigma-Aldrich, cat. A9165), 10 mM nicotinamide (Sigma-Aldrich, cat. N0636), 1X B-27 supplement (Thermo Fisher Scientific, cat. 17504044), 1X N-2 supplement (Thermo Fisher Scientific, cat. 17502048), 10 microM Y-27632 dihydrochloride (Tocris Bioscience, cat. 1254), and 50 ng/mL human EGF recombinant protein (Thermo Fisher Scientific, cat. PHG0311). The 485176-168-R4-J1-PDC line was cultured in Panc media, which includes all 6C/Colon 1B media components plus 100 ng/mL human FGF-10 (Thermo Fisher Scientific, cat. 100-26), 500 nM SB-431542 (Selleckchem, cat. S1067), and gastrin (Tocris, cat. 3006).
[…]
On to `C=CC(=O)N1CCN(c2nc(=O)n(-c3c(C)ccnc3C(C)C)c3nc(-c4c(O)cccc4F)c(F)cc23)C(C)C1` (stereo not drawn), for which the viability, T/C – broadly, the ratio of treated to control – is 115% and 108% and 109%.

With `CC(C)n1c(=O)n(C)c2cnc3cc(F)c(-c4ccc(OCCCN5CCCCC5)nc4)cc3c21`, the viability, T/C was 64% and 74.3% and 68.2%.

Regarding `CC1COCCN1c1cc(-c2ccnn2C)c2ccnc(-c3ccn[nH]3)c2n1` (stereo not drawn), the viability, T/C is 24.5% and 24% and 22.7%.

With `CC1COCCN1c1cc(C2(O)CC3CCC(C2)O3)c2cnn(-c3ccn[nH]3)c2n1` (stereo not drawn), the viability, T/C was 12% and 10.9% and 14.2%.

As for `CC1COCCN1c1cc(C2(S(C)(=N)=O)CC2)nc(-c2ccnc3[nH]ccc23)n1` (stereo not drawn), the viability, T/C was 30% and 37.2% and 31.8%.

As to `CN(C)c1ccc(Nc2c3ccc(NC(=O)CCN4CCCC4)cc3nc3cc(NC(=O)CCN4CCCC4)ccc23)cc1`, the viability, T/C is 74% [middle of 12 runs].

On to `COc1cc(C2c3cc4c(cc3C(OC3OC5COC(C)OC5C(O)C3O)C3COC(=O)C23)OCO4)cc(OC)c1O` (stereo not drawn), for which the viability, T/C is 15.8% and 12.7% and 15.5%.

Consider `COc1ccc([C@@H](O)c2cc(-c3ncnc4cc(N5CCOCC5)ccc34)c(F)cc2Cl)nn1`, for which the viability, T/C was 50.3% and 57.7% and 45.4%.

Consider `COc1cccc2c1C(=O)c1c(O)c3c(c(O)c1C2=O)CC(O)(C(=O)CO)CC3OC1CC(N)C(O)C(C)O1` (stereo not drawn), for which the viability, T/C is 0.95% and 0.93% and 0.63%.

With `Cc1[nH]c2ccc(F)cc2c1-c1nc2c3cccnc3c3ncccc3c2[nH]1`, the viability, T/C was 88.5% [middle of 12 runs].

Turning to `Cc1cccc(N(C)C(=O)C2C(O)CCN2c2nc(C)cc(C(F)(F)F)c2C#N)c1` (stereo not drawn), the viability, T/C is 107% (2×) and 101%.

Turning to `Nc1ccn(C2OC(CO)C(O)C2(F)F)c(=O)n1` (stereo not drawn), the viability, T/C was 16.6% and 13.6% and 14.2%.

As for `O=C(c1cc(Cc2n[nH]c(=O)c3ccccc23)ccc1F)N1CCN(C(=O)C2CC2)CC1`, the viability, T/C is 63.8% and 66.6% and 66.7%.

On to `O=c1[nH]cc(F)c(=O)[nH]1`, for which the viability, T/C is 46.3% and 42.6% and 32.9%.

The assay is the same for the next values; noted with them: compound alone; run of 04/16/2024; spheroids with HUVEC and MSC.
Take `Cc1[nH]c2ccc(F)cc2c1-c1nc2c3cccnc3c3ncccc3c2[nH]1`: the IC50 (in general, the concentration at which inhibition is half-maximal) is more than 10 µM.

The assay is the same for the next values; noted with them: compound alone; run of 04/22/2024; spheroids with HUVEC and MSC.
As to `CN(C)c1ccc(Nc2c3ccc(NC(=O)CCN4CCCC4)cc3nc3cc(NC(=O)CCN4CCCC4)ccc23)cc1`, the IC50 is more than 10 µM.

With `Cc1[nH]c2ccc(F)cc2c1-c1nc2c3cccnc3c3ncccc3c2[nH]1`, the IC50 is more than 10 µM.

The same assay, now with this note: curve of compound; spheroids with HUVEC and MSC.
Regarding `C=CC(=O)N1CCN(c2nc(=O)n(-c3c(C)ccnc3C(C)C)c3nc(-c4c(O)cccc4F)c(F)cc23)C(C)C1` (stereo not drawn), the IC50 was more than 10 µM.

In the case of `CC(C)n1c(=O)n(C)c2cnc3cc(F)c(-c4ccc(OCCCN5CCCCC5)nc4)cc3c21`, the IC50 was more than 10 µM.

For the compound `CC1COCCN1c1cc(-c2ccnn2C)c2ccnc(-c3ccn[nH]3)c2n1` (stereo not drawn), the IC50 is 0.148 µM and 0.176 µM and 0.124 µM.

Regarding `CC1COCCN1c1cc(C2(O)CC3CCC(C2)O3)c2cnn(-c3ccn[nH]3)c2n1` (stereo not drawn), the IC50 is 0.135 µM and 0.139 µM and 0.157 µM.

On to `CC1COCCN1c1cc(C2(S(C)(=N)=O)CC2)nc(-c2ccnc3[nH]ccc23)n1` (stereo not drawn), for which the IC50 was 5.41 µM and 6.58 µM and 5.95 µM.

For `CC[C@@]1(O)C(=O)OCc2c1cc1n(c2=O)Cc2cc3c(CN(C)C)c(O)ccc3nc2-1`, the IC50 was 0.0456 µM and 0.0442 µM and 0.0427 µM.

On to `CCc1c2c(nc3ccc(O)cc13)-c1cc3c(c(=O)n1C2)COC(=O)[C@]3(O)CC`, for which the IC50 was 0.00176 µM and 0.00183 µM and 0.00151 µM.

Consider `COc1cc(C2c3cc4c(cc3C(OC3OC5COC(C)OC5C(O)C3O)C3COC(=O)C23)OCO4)cc(OC)c1O` (stereo not drawn), for which the IC50 was 1.17 µM and 1.13 µM and 1.39 µM.

In the case of `COc1ccc([C@@H](O)c2cc(-c3ncnc4cc(N5CCOCC5)ccc34)c(F)cc2Cl)nn1`, the IC50 was > 10 µM and 7.77 µM.

As for `COc1cccc2c1C(=O)c1c(O)c3c(c(O)c1C2=O)CC(O)(C(=O)CO)CC3OC1CC(N)C(O)C(C)O1` (stereo not drawn), the IC50 was 0.151 µM and 0.225 µM and 0.162 µM.

Turning to `Cc1[nH]c2ccccc2c1CCNCc1ccc(/C=C/C(=O)NO)cc1`, the IC50 is 0.0755 µM and 0.0725 µM and 0.0677 µM.

Take `Cc1cccc(N(C)C(=O)C2C(O)CCN2c2nc(C)cc(C(F)(F)F)c2C#N)c1` (stereo not drawn): the IC50 is more than 10 µM.

As to `Cn1ncnc1[C@H]1c2n[nH]c(=O)c3cc(F)cc(c23)N[C@@H]1c1ccc(F)cc1`, the IC50 was more than 0.316 µM.

Take `Nc1ccn(C2OC(CO)C(O)C2(F)F)c(=O)n1` (stereo not drawn): the IC50 is less than 0.0316 µM.

Turning to `O=C(c1cc(Cc2n[nH]c(=O)c3ccccc23)ccc1F)N1CCN(C(=O)C2CC2)CC1`, the IC50 was more than 10 µM.

Regarding `O=c1[nH]cc(F)c(=O)[nH]1`, the IC50 is 2.27 µM and 2.11 µM and 2.28 µM.

The values above are taken from PubChem BioAssay AID2060508 (Molecular Pharmacology Branch, DTP, NCI, 2025).
